In publication PMC8198056 (Molecules, 2021):
Numbered stars: 1 amine (or outer) side, 2 acyl side, 3 side chain; on linkers, the order of the positions; unused ones are H or OH. Square brackets hold non-standard residues; d marks the D form. Peptide text beside a SMILES is read from it. X1 = O=C1[C@@H](N[*:1])Cc2ccccc2CN1CCC(=O)[*:2]; Dmt = Cc1cc(O)cc(C)c1C[C@H](N)C(=O)O

Legend:
rats [1] = test system: rats; parameters: method as in PMID 27035422, PMID 28135212; settings: i.v. at equianalgesic doses to rats; cited from earlier work
mice [2] = test: Open-field test (spontaneous locomotor activity)
mice [3] = test: CFA-induced chronic inflammatory pain, thermal sensitivity (Hargreaves test); type: in vivo, mouse
human KOR [4] = biological target: T1, human KOR (Homo sapiens, UniProt P41145); test: [35S]GTPγS binding assay, CHO-hKOR membranes; type: biochemical
T1 construct: expressed in transfected cells; host or cells: CHO (CHO-hKOR; gift of Lawrence Toll, SRI International)

mice [5] = test: Conditioned place preference (CPP); settings: 1.22 and 2.44 µmol/kg s.c., 4-day conditioning
rats [6] = settings: acute i.t. administration in rats; cited from earlier work
mice [7] = test: Formalin test (formalin-induced acute inflammatory pain); settings: for %Antinociceptive effect Phase I: Phase I 0-5 min; for %Antinociceptive effect Phase II: Phase II 15-60 min
human DOR [8] = biological target: T2, human DOR (Homo sapiens, UniProt P41143); test: Competitive radioligand binding assay ([3H]diprenorphine), CHO-hDOR membranes; settings: CHO-hOR membranes, mean ± SEM, read-out: Receptor Binding Ki
T2 construct: expressed in transfected cells; host or cells: CHO (CHO-hDOR; gift of Lawrence Toll, SRI International)

human MOR [9] = biological target: T3, human MOR (Homo sapiens, UniProt P35372); test: Competitive radioligand binding assay ([3H]DAMGO), CHO-hMOR membranes; settings: CHO-hOR membranes, mean ± SEM, read-out: Receptor Binding Ki
T3 construct: expressed in transfected cells; host or cells: CHO (CHO-hMOR; gift of Lawrence Toll, SRI International)

human MOR [10] = biological target: T3, human MOR; test: [35S]GTPγS binding assay, CHO-hMOR membranes; type: biochemical
[11] = parameters: method as in PMID 27035422; settings: cited from earlier work
human DOR [12] = biological target: T2, human DOR; test: [35S]GTPγS binding assay, CHO-hDOR membranes; type: biochemical
mice [13] = test: CFA-induced chronic inflammatory pain, mechanical sensitivity (von Frey test); type: in vivo, mouse; settings: 1.22 µmol/kg s.c.
human KOR [14] = biological target: T1, human KOR; test: Competitive radioligand binding assay ([3H]U69,593), CHO-hKOR membranes; settings: [3H]U69,593, CHO-hOR membranes, mean ± SEM, read-out: Receptor Binding Ki
human NOP receptor = biological target: T4, human NOP receptor (Homo sapiens, UniProt P41146); test: [35S]GTPγS binding assay, CHO-hNOP membranes; type: biochemical; settings: relative to maximum effect of nociceptin (100%)
T4 construct: expressed in transfected cells; host or cells: CHO (CHO-hNOP; gift of Lawrence Toll, SRI International)

CC[C@H](C)[C@H](NC(=O)[C@H](CCCNC(=N)N)NC(=O)[C@H](Cc1ccc(O)cc1)NC(=O)[C@H](Cc1ccc(O)cc1)NC(=O)[C@H](CCCNC(=N)N)NC(=O)CCN1Cc2ccccc2C[C@H](NC(=O)[C@@H](CCCNC(=N)N)NC(=O)[C@@H](N)Cc2c(C)cc(O)cc2C)C1=O)C(=O)N[C@@H](CCCCN)C(N)=O [KGNOP1, H-Dmt-D-Arg-Aba-β-Ala-Arg-Tyr-Tyr-Arg-Ile-Lys-NH2] (H-[Dmt][dR][X1]RYYRIK-NH2)
Respiratory depression in contrast to morphine (rats [1]): significantly less respiratory depression
Spontaneous locomotor activity (distance traveled) vs saline (mice [2]; 1.22 µmol/kg s.c. daily for 4 days): no significant alteration in locomotion
Spontaneous locomotor activity (distance traveled) vs saline (mice [2]; 2.44 µmol/kg s.c., only at day 1): significant decrease in locomotion
Time span of significant inhibition of thermal hyperalgesia vs saline (mice [3]; 0.49 µmol/kg s.c.): 30 to 240 min
% reversal of thermal sensitivity (mice [3]; 0.49 µmol/kg s.c., 30 min): 23.5%
% reversal of thermal sensitivity (mice [3]; 0.49 µmol/kg s.c., 1 h): 38.1%
% reversal of thermal sensitivity (mice [3]; 0.49 µmol/kg s.c., 2 h): 59.8%
% reversal of thermal sensitivity (mice [3]; 0.49 µmol/kg s.c., 3 h): 40.2%
% reversal of thermal sensitivity (mice [3]; 0.49 µmol/kg s.c., 4 h): 25.4%
% reversal of thermal sensitivity (mice [3]; 0.49 µmol/kg s.c., 5 h): 15.7%
% reversal of thermal sensitivity (mice [3]; 0.49 µmol/kg s.c., 6 h): 9.3%
% reversal of thermal sensitivity (mice [3]; 0.49 µmol/kg s.c., 7 h): -1.46%
% reversal of thermal sensitivity (mice [3]; 0.49 µmol/kg s.c., 8 h): 6.12%
% reversal of thermal sensitivity (mice [3]; 0.49 µmol/kg s.c., 24 h): -3.79%
Time of maximum efficacy, Hargreaves test (mice [3]; 1.22 µmol/kg s.c.): two hours
Time span of significant inhibition of thermal hyperalgesia vs saline (mice [3]; 1.22 µmol/kg s.c.): 30 to 360 min
% reversal of thermal sensitivity (mice [3]; 1.22 µmol/kg s.c., 30 min): 31.9%
% reversal of thermal sensitivity (mice [3]; 1.22 µmol/kg s.c., 1 h): 54.4%
% reversal of thermal sensitivity (mice [3]; 1.22 µmol/kg s.c., 2 h): 98.6%
% reversal of thermal sensitivity (mice [3]; 1.22 µmol/kg s.c., 3 h): 78.6%
% reversal of thermal sensitivity (mice [3]; 1.22 µmol/kg s.c., 4 h): 58.2%
% reversal of thermal sensitivity (mice [3]; 1.22 µmol/kg s.c., 5 h): 26.0%
% reversal of thermal sensitivity (mice [3]; 1.22 µmol/kg s.c., 6 h): 26.7%
% reversal of thermal sensitivity (mice [3]; 1.22 µmol/kg s.c., 7 h): 10.2%
% reversal of thermal sensitivity (mice [3]; 1.22 µmol/kg s.c., 8 h): 9.15%
% reversal of thermal sensitivity (mice [3]; 1.22 µmol/kg s.c., 24 h): 6.72%
Duration of reversal of CFA-induced thermal hyperalgesia (mice [3]; s.c.): up to 6 h
EC50 (human KOR [4]): 0.112 ± 0.032 µM
Emax (human KOR [4]; relative to maximum effect of U69,593 (100%)): 37 ± 3%
CPP response vs saline (mice [5]): no significant preference at any tested dose
Effect on evoked locomotor activity in the rotarod test (rats [6]): lack of KGNOP1′s effect on the evoked locomotor activity
%Antinociceptive effect Phase I (mice [7]; 0.12 µmol/kg s.c.): 33.9 ± 3.8%
%Antinociceptive effect Phase II (mice [7]; 0.12 µmol/kg s.c.): 2.3 ± 11.1%
%Antinociceptive effect Phase I (mice [7]; 0.49 µmol/kg s.c.): 33.7 ± 9.3%
%Antinociceptive effect Phase II (mice [7]; 0.49 µmol/kg s.c.): 51.8 ± 9.7%
Pain response counted between 15 and 60 min (mice [7]; 1.22 µmol/kg s.c.): almost complete inhibition of the pain response
%Antinociceptive effect Phase I (mice [7]; 1.22 µmol/kg s.c.): 55.6 ± 7.3%
%Antinociceptive effect Phase II (mice [7]; 1.22 µmol/kg s.c.): 71.4 ± 6.8%
Antinociceptive effect after pre-treatment with SB-612111 (mice [7]; KGNOP1 1.22 µmol/kg s.c., SB-612111 6.6 µmol/kg s.c., -30 min, Phase I and II): significantly reversed the antinociceptive response
Antinociceptive effect after pre-treatment with naltrexone (mice [7]; KGNOP1 1.22 µmol/kg s.c., naltrexone 2.6 µmol/kg s.c., -15 min, Phase I and II): significant antagonism of the antinociceptive effect
Antinociceptive ED50 (95% CL), Phase I (mice [7]; s.c., acute nociceptive Phase I (0-5 min)): 1.17 µmol/kg
Antinociceptive ED50 (95% CL), Phase II (mice [7]; s.c., inflammatory Phase II (15-60 min)): 0.55 µmol/kg
Ki (human DOR [8]): 0.0122 ± 0.0035 µM
Ki (human MOR [9]): 0.00042 ± 8e-05 µM
EC50 (human MOR [10]): 0.0025 ± 0.00081 µM
Emax (human MOR [10]; relative to maximum effect of DAMGO (100%)): 92 ± 4%
Half-life time t1/2 in human plasma [11]: 9.77 h
EC50 (human DOR [12]): 0.0516 ± 0.0178 µM
Emax (human DOR [12]; relative to maximum effect of DPDPE (100%)): 106 ± 3%
Time points of significant effect on mechanical stimulation vs saline (mice [13]): one hour
% reversal of mechanical sensitivity (mice [13]; 30 min): -6.71%
% reversal of mechanical sensitivity (mice [13]; 1 h): 65.4%
% reversal of mechanical sensitivity (mice [13]; 2 h): 19.1%
% reversal of mechanical sensitivity (mice [13]; 3 h): -8.73%
% reversal of mechanical sensitivity (mice [13]; 4 h): 21.1%
% reversal of mechanical sensitivity (mice [13]; 5 h): -0.50%
% reversal of mechanical sensitivity (mice [13]; 6 h): -12.9%
% reversal of mechanical sensitivity (mice [13]; 7 h): -8.30%
% reversal of mechanical sensitivity (mice [13]; 8 h): -2.42%
% reversal of mechanical sensitivity (mice [13]; 24 h): -8.66%
Ki (human KOR [14]): 0.0134 ± 0.0043 µM
Emax (human NOP receptor): 99 ± 8%
